Assay [1] concerns the target Zea mays EPSPS variant 224R 249V (Zea mays, UniProt O24566, K223R/Y248V). The assay can be described thus: EPSPS reaction rate with or without 10 uM glyphosate, 224R 249V. Further: 50 µM PEP and S3P. It counts as biochemical. Conditions: pH 7; read-out: Reaction rate with 10 μM glyph, % no glyph.
In assay [2] the target is Zea mays EPSPS variant 241A 278G (Zea mays, UniProt O24566, K240A/T277G). The assay can be described thus: EPSPS reaction rate with or without 10 uM glyphosate, 241A 278G. Further: 50 µM PEP and S3P. It counts as biochemical. Conditions: pH 7; read-out: Reaction rate with 10 μM glyph, % no glyph.
The test system of assay [3] is Glycine max (93Y21) cotyledon hairy roots. The assay can be described thus: Hairy root growth of transformed soybean cotyledons on 25 uM glyphosate. It counts as cell-based.
Assay [4] addresses T1, Zea mays EPSPS variant Zm-A189T (Zea mays, UniProt O24566, A188T).
T1 sequence (O24566 with tags, fused parts or gaps A188T): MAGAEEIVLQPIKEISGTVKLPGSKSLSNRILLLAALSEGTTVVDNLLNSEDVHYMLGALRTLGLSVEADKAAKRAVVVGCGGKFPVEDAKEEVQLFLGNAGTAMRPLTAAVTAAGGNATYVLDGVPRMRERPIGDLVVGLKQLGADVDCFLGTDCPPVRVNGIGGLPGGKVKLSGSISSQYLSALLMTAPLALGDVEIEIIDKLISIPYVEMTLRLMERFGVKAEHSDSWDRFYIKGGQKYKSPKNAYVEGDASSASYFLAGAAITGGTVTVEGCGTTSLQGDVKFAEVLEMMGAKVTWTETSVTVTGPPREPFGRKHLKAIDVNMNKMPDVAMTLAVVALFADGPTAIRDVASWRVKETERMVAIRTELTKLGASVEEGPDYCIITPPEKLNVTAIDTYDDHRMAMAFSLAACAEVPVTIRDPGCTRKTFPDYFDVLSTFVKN
As to the kind of experiment: Substrate saturation kinetic analysis with glyphosate, Zm-A189T. The assay is classed as biochemical.

The target in assay [5] is Zea mays EPSPS variant Zm-G102A (Zea mays, UniProt O24566, G101A). As to the kind of experiment: Rapid two-rate method for (kcat/KM)*KI, Zm-G102A. The assay is classed as biochemical. Particulars: [E] 0.07 uM, [Gly] 1000 uM. The text has this: (§1) There are several practical considerations for accurately estimating (kcat/KM)*KI with the rapid method. […] 2) The inhibitor concentration must be adjusted so as to obtain a degree of inhibition that minimally amplifies the error in the term v0-vi in Equation 3. If inhibition is too little, v0-vi will be small, and the error in the multiplier vi×v0/(v0-vi) will be large. […] 3) Substrate concentration should be set at the approximate KM of the parental variant(s), subject to the sensitivity of the assay. High substrate concentration obscures sensitivity to the inhibitor and reduces stringency for capturing improvements in KM. Depending on the necessity for speed, there exists opportunity for customizing enzyme and inhibitor concentrations. […] The rapid method was repeated for those and obtained data that correlated better with data obtained by substrate saturation analysis. For screening purposes however, that correlation step is not necessary. Conditions can be set so that variants with a pre-determined minimal fitness level are accurately quantified.
(§2) In Table 15, parameters above the heavy line for the rapid method were obtained under standard conditions. For variants shown below the heavy line, the rapid analysis was repeated with enzyme or glyphosate concentrations adjusted as needed to generate sufficient signal within the limits for linear initial rates.

Assay [6] deals with T2, Zea mays EPSPS variant Zm-H6 (868-H6) with H54E (H6-H54E) (Zea mays, UniProt O24566, A1R/A3W/A415G/A71Q/D401G/E301S/E390G/G101A/H53E/I207L/K83R/L97C/T278A/T360S/T440Q/V437R).
T2 construct: 868-H6 plus H54E; E. coli BL21(DE3), Ni-NTA purified
T2 sequence (O24566 with tags, fused parts or gaps A1R/A3W/H53E/A71Q/K83R/L97C/G101A/I207L/T278A/E301S/T360S/E390G/D401G/A415G/V437R/T440Q): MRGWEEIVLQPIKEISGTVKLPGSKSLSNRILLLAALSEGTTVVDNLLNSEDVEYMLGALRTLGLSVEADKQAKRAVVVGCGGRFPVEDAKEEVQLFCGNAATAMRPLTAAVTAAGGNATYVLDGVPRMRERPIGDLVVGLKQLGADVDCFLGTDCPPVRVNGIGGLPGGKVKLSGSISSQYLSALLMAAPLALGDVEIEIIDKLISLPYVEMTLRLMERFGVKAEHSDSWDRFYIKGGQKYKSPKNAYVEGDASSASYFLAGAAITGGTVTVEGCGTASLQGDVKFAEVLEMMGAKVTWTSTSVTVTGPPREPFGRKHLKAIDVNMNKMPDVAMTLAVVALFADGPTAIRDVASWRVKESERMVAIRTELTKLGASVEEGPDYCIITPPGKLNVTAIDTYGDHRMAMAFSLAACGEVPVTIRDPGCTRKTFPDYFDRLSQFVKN
The assay can be described thus: Rapid two-rate method for (kcat/KM)*KI, H6-H54E. It counts as biochemical. Particulars: [E] 0.07 uM, [Gly] 1000 uM.
From the text: as §1, §2

In assay [7] the target is T3, Zea mays EPSPS variant Zm-H6 (868-H6) with V87T (H6-V87T) (Zea mays, UniProt O24566, A1R/A3W/A415G/A71Q/D401G/E301S/E390G/G101A/I207L/K83R/L97C/T278A/T360S/T440Q/V437R/V86T).
T3 construct: 868-H6 plus V87T; E. coli BL21(DE3), Ni-NTA purified
T3 sequence (O24566 with tags, fused parts or gaps A1R/A3W/A71Q/K83R/V86T/L97C/G101A/I207L/T278A/E301S/T360S/E390G/D401G/A415G/V437R/T440Q): T2 sequence (O24566 with tags, fused parts or gaps A1R/A3W/H53E/A71Q/K83R/L97C/G101A/I207L/T278A/E301S/T360S/E390G/D401G/A415G/V437R/T440Q) with E54H, V87T
As to the kind of experiment: Rapid two-rate method for (kcat/KM)*KI, H6-V87T. It counts as biochemical. Conditions: [E] 0.07 uM, [Gly] 1000 uM.
From the text: as §1, §2

The structures appear in SMILES notation. Where a chain is given by its changes, count along the chain named.

Chain of Zea mays EPSPS variant 224R 249V (O24566 entry or part of it K223R/Y248V): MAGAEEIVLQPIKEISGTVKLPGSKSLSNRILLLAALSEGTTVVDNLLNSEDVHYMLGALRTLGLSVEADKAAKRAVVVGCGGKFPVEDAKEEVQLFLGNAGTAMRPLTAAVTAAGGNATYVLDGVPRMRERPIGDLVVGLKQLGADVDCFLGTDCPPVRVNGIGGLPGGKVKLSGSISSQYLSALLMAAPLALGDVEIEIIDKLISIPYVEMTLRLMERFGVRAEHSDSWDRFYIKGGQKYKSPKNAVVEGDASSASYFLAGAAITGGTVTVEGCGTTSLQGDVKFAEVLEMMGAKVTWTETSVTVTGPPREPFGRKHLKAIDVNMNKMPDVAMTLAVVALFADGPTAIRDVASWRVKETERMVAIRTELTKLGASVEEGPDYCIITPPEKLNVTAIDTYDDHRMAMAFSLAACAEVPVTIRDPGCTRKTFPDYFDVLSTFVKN
Chain of Zea mays EPSPS variant Zm-G102A (O24566 entry or part of it G101A): as the sequence (O24566 entry or part of it K223R/Y248V) above, with G102A, R224K, V249Y counted along it
Chain of Zea mays EPSPS variant 241A 278G (O24566 entry or part of it K240A/T277G): as the sequence (O24566 entry or part of it K223R/Y248V) above, with R224K, K241A, V249Y, T278G counted along it

Take `O=C(O)CNCP(=O)(O)O` [glyphosate, N-phosphonomethylglycine]: the results for the activity at 10 µM in assay [1] and in assay [2] were 3.09% and 3.75%, respectively. Moreover, the hairy root formation result in assay [3] (EPSPS driven by weaker promoters (UBQ3 and native), with glyphosate) is “Hairy roots were not formed”; in assay [3] (UBQ10 promoter and H6, C1 and C2 variants, 25 uM glyphosate) it was “generated hairy roots”. Further, in assay [3] (native EPSPS (UBQ10 promoter), 25 uM glyphosate), the root growth result was “no root growth”. Besides, the Ki in assay [4] came to 337 µM. Besides, the “(kcat/KM)*KI” value was 283 in assay [4] (substrate saturation, Zm-A189T); 3596 in assay [5]; 4529 in assay [6]; 3190 in assay [7].
